Read-outs that look alike come from different tables or passages of the source.
Key:
KDM6A (UTX) [1] = target: T1, KDM6A (UTX) (Homo sapiens, UniProt O15550); assay: biochemical; conditions: for inhibition at 1 µM: read-out: KDM6A (UTX) Inhibition (%) 1 (μM); for inhibition at 10 µM: read-out: KDM6A (UTX) Inhibition (%) 10 (μM)
MDA-MB-231 (TNBC BCa) = assay: Cell viability assay (MTS), MDA-MB-231; format: cell-based; conditions: NI = no inhibition, read-out: Antiproliferative Activity IC50 (μM) MDA-MB-231
KDM6A (UTX) [2] = target: T1, KDM6A (UTX); conditions: for IC50 against KDM6A (in words): cell-free; for KDM6A (UTX) Inhibition (%) 1 (μM): compound at 1 μM; for KDM6A (UTX) Inhibition (%) 10 (μM): compound at 10 μM
[3] = test system: HP1-mediated heterochromatin gene repression at the CiA:Oct4 locus; assay: HP1-recruitment assay (CiA:Oct4), % GFP (+) cells by flow cytometry; format: cell-based, mouse; conditions: 48 h, CIP-rapamycin HP1 recruitment
Description: To elucidate the effect of DFP-based KDM inhibitors have on chromatin dynamics, we profiled them in an intracellular assay which measures heterochromatin formation speed. The chromatin assay (CiA) leverages chemical induced proximity (CTP) to recruit heterochromatin protein 1 (HP1) to a modified Oct4 locus. This reporter system inserts tandem arrays of Gal4 and zinc finger DNA binding domains in the promoter of one allele of Oct4, where the gene is replaced by a nuclear eGFP reporter. Protein fusions of Gal4-FKBP and FRRB—HP1 allow for direct chemical recruitment of HP1 to the CiA:Oct4 reporter locus upon addition of the chemical inducer of proximity (CIP)-rapamycin. After CIP-rapamycin addition, HIP1 is recruited to the reporter locus and brings histone methyltransferase enzymes to the chromatin reporter resulting in the repressive H3K9me3 mark being deposited. H3K9me3 deposition leads to heterochromatin formation and gene silencing (FIG. 7A). Others have shown that H3K4me3 marked nucleosomes impede H3K9 methyltransferases. Thus, we postulate that the active H3K4me3 mark mast be removed by KDM enzymes as part of the transformation from euchromatin to heterochromatin. Inhibition of KDMs, specifically those targeting H3K4me3, would result in a decrease in H3K9me3 accumulation, which would be measured in our assay as an increase in % GFP (+) cells.
To determine the effect of DFP-based KDM inhibitors on HP1-mediated gene repression, we treated CiA:Oct4 embryonic stem (ES) cells with doses of representative compounds ranging from […] for 48 h with and without CIP-rapamycin recruiting HP1 (FIG. 7B). […] Dose response curves of DFP derivatives abler 48 h with C) and without D) HP1 recruitment at 10000, 5000, 2500, 1000, 500, 250, and 0 nM concentrations. Flow cytometry was used to determine the % GFP (+) cells following treatment. n=6
The CiA:Oct4 recruitment system in mouse embryonic stem cells contains Gal4 and Zinc finger DNA binding arrays and a downstream nuclear eGFP gene in place of a single Oct4 allele as previously described. The CiA:Oct4 N118/N163 cell line containing viral integrations of N118 and N163 plasmids (N118-nLV EF-1α-Gal-FKBPx1-HA-PGK-Blast, N163-nLV EF-1α-HP1α (CS)-Frbx2(Frb+FrbWobb)-V5-PGK-Puro) was used for inhibition of HP1-mediated heterochromatin studies. All plasmids are freely available on addgene.
Day 0, CiA:Oct4 N118/163 cells were grown in ES media and seeded at a density of 10,000 cells per well (100.000 cells/ml) into gelatin coated 96 well plates. Day 1, culture media was aspirated and replaced with 100 μl ES media containing +/−6 nM rapamycin. 10 μM, 5 μM, 2.5 μM, 1 μM, 500 nM, and 250 nM concentrations of compound or DMSO were added using a TTP Labtech Mosquito HTS liquid handler. Days 2-4. fresh ES media+/−rapamycin and compound were added as in Day 1.
Day 3 and 5, cells were washed with PBS and trypsinized using 0.25% trypsin-EDTA. Trypsin was quenched with serum. Cells were resuspended by pipetting in preparation for flow cytometry analysis.
Flow cytometry data was acquired using the Intellicyt iQue Screener and analyzed with FlowJo software. Cell populations were gated based on forward and side scatter height. Single cell populations were gated using forward scatter area by forward scatter height. Autofluorescent cells were excluded and the remaining cells were gated into GFP (−) and GFP (+) populations based on DMSO control samples.

T1 sequence (O15550 whole entry): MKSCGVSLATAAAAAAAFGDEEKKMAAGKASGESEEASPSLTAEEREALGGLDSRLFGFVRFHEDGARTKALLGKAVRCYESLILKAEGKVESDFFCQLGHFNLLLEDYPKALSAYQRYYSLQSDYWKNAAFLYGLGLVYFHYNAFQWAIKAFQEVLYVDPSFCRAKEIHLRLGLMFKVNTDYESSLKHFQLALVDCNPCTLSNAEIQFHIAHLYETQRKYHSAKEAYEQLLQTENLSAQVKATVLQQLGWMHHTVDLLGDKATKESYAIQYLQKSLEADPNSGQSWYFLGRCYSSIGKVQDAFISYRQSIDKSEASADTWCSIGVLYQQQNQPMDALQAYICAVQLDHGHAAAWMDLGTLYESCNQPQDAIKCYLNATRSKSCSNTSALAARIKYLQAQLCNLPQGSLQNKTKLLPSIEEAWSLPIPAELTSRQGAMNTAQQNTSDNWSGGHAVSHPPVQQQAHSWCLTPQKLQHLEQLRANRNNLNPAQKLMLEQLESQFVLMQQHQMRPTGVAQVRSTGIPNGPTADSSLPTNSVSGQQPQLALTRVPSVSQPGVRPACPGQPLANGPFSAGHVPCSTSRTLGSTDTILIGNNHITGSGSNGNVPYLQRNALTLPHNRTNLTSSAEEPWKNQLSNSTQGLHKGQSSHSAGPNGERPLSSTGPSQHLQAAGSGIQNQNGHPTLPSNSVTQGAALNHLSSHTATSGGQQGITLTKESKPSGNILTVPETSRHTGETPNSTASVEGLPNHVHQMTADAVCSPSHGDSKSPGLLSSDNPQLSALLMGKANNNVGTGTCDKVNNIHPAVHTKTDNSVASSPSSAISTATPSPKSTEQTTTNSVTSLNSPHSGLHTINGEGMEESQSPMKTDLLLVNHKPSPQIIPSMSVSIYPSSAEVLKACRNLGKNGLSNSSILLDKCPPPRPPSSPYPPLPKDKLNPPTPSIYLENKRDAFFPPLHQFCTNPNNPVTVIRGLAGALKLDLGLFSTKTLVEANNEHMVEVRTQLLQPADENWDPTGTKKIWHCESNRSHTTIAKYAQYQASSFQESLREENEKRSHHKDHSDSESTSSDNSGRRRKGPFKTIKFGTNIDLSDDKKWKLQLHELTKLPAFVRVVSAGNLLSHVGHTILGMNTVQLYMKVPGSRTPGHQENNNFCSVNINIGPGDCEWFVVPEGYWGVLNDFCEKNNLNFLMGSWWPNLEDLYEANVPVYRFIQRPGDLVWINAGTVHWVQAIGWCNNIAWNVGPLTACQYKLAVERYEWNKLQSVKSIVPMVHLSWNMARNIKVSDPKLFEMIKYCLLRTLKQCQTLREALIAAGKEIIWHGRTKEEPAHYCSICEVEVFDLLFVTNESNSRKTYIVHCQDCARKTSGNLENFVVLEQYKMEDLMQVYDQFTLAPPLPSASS

CC/C(=C(\c1ccccc1)c1ccc(OCCN(C)Cc2ccc(-c3cn(CCn4ccc(=O)c(O)c4C)nn3)cc2)cc1)c1ccccc1 [Compound 36a]
inhibition at 1 µM (KDM6A (UTX) [1]): 9%
inhibition at 10 µM (KDM6A (UTX) [1]): 100%
IC50 (MDA-MB-231 (TNBC BCa); Homo sapiens, MDA-MB-231, 72 h): 1.6 µM

Cc1c(O)c(=O)ccn1CCCCCn1cc(-c2ccccc2C(F)(F)F)nn1 [Compound 2p, 3-Hydroxy-2-methyl-1-(5-(4-(2-(trifluoromethyl)phenyl)-1H-1,2,3-triazol-1-yl)pentyl)pyridin-4(1H)-one]
inhibition at 1 µM (KDM6A (UTX) [1]): 15%
inhibition at 10 µM (KDM6A (UTX) [1]): 99%

COc1cccc(-c2cn(CCCCCn3ccc(=O)c(O)c3C)nn2)c1 [Compound 2j, 3-Hydroxy-1-(5-(4-(3-methoxyphenyl)-1H-1,2,3-triazol-1-yl)pentyl)-2-methylpyridin-4(1H)-one]
inhibition at 1 µM (KDM6A (UTX) [1]): 8%
inhibition at 10 µM (KDM6A (UTX) [1]): 100%
IC50 against KDM6A (in words) (KDM6A (UTX) [2]): low micromolar
increase in GFP expression [3]: 20%
inhibition of heterochromatin formation (in words) [3]: significantly inhibited
IC50 (MDA-MB-231 (TNBC BCa); Homo sapiens, MDA-MB-231, 72 h): 19.6 µM

COc1ccc(-c2cn(CCCCCn3ccc(=O)c(O)c3C)nn2)cc1 [Compound 2l, 3-Hydroxy-1-(5-(4-(4-methoxyphenyl)-1H-1,2,3-triazol-1-yl)pentyl)-2-methylpyridin-4(1H)-one]
inhibition at 1 µM (KDM6A (UTX) [1]): 4%
inhibition at 10 µM (KDM6A (UTX) [1]): 100%

Cc1c(O)c(=O)ccn1CCCCCn1cc(-c2ccc(N(C)C)cc2)nn1 [Compound 2r, 1-(5-(4-(4-(Dimethylamino)phenyl)-1H-1,2,3-triazol-1-yl)pentyl)-3-hydroxy-2-methylpyridin-4(11)-one]
IC50 (MDA-MB-231 (TNBC BCa); 72 h): 12.5 µM

Cc1c(O)c(=O)ccn1CCCCCn1cc(-c2ccccn2)nn1 [Compound 2s, 3-Hydroxy-2-methyl-1-(5-(4-(pyridin-2-yl)-1H-1,2,3-triazol-1-yl)pentyl)pyridin-4(1H)-one]
inhibition at 1 µM (KDM6A (UTX) [1]): 15%
inhibition at 10 µM (KDM6A (UTX) [1]): 99%

COc1ccccc1-c1cn(CCCCn2ccc(=O)c(O)c2C)nn1 [Compound 2g, 3-Hydroxy-1-(4-(4-(2-methoxyphenyl)-1H-1,2,3-triazol-1-y)butyl)-2-methylpyridin-4(1H)-one]
IC50 (MDA-MB-231 (TNBC BCa); 72 h): 9.6 µM

Cc1c(O)c(=O)ccn1CCn1cc(-c2ccccc2)nn1 [Compound 1a]
inhibition at 1 µM (KDM6A (UTX) [1]): 12%
inhibition at 10 µM (KDM6A (UTX) [1]): 96%
inhibition of heterochromatin formation (in words) [3]: weak inhibitors

Cc1c(O)c(=O)ccn1Cc1ccc(Cn2ccc(=O)c(O)c2C)cc1 [Compound 3f, 1,1′-(1,4-Phenylenebis(methylene))bis(3-hydroxy-2-methylpyridin-4(1H)-one)]
inhibition at 1 µM (KDM6A (UTX) [1]): 5%
inhibition at 10 µM (KDM6A (UTX) [1]): 100%

Cc1ccc(-c2cn(CCCCn3ccc(=O)c(O)c3C)nn2)cc1 [Compound 2e, 3-Hydroxy-2-methyl-1-(4-(4-(p-tolyl)-1H-1,2,3-triazol-1-yl)butyl)pyridin-4(1H)-one]
inhibition at 1 µM (KDM6A (UTX) [1]): 13%
inhibition at 10 µM (KDM6A (UTX) [1]): 100%

Cc1c(O)c(=O)ccn1CCCCCn1cc(-c2ccc(-c3ccncc3)cc2)nn1 [Compound 2t, 3-Hydroxy-2-methyl-1-(5-(4-(4-(pyridin-4-yl)phenyl)-1H-1,2,3-triazol-1-yl)pentyl)pyridin-4(1H)-one]
inhibition at 1 µM (KDM6A (UTX) [1]): 8%
inhibition at 10 µM (KDM6A (UTX) [1]): 99%
concentration at which maximum inhibition of heterochromatin formation / gene repression is reached [3]: 10 µM
inhibition of heterochromatin formation (in words) [3]: significantly inhibited

Cc1c(O)c(=O)ccn1C1CCC(CC2CCC(n3ccc(=O)c(O)c3C)CC2)CC1 (stereo not drawn) [Compound 3g, 1,1′-(Methylenebis(cyclohexane-4,1-diyl))bis(3-hydroxy-2-methylpyridin-4(1H)-one)]
inhibition at 1 µM (KDM6A (UTX) [1]): 9%
inhibition at 10 µM (KDM6A (UTX) [1]): 100%
IC50 against KDM6A (in words) (KDM6A (UTX) [2]): low micromolar
concentration at which maximum inhibition of heterochromatin formation / gene repression is reached [3]: 2.5 µM
inhibition of heterochromatin formation (in words) [3]: significantly inhibited

Cc1c(O)c(=O)ccn1CCCCCn1ccc(=O)c(O)c1C [Compound 3b]
KDM6A (UTX) Inhibition (%) 1 (μM) (KDM6A (UTX) [2]): 1%
KDM6A (UTX) Inhibition (%) 10 (μM) (KDM6A (UTX) [2]): 99%

Cc1c(O)c(=O)ccn1CCCCCn1cc(-c2cccc(F)c2)nn1 [Compound 2n, 1-(5-(4-(3-Fluorophenyl)-1H-1,2,3-triazol-1-yl)pentyl)-3-hydroxy-2-methylpyridin-4(1H)-one]
inhibition at 1 µM (KDM6A (UTX) [1]): 5%
inhibition at 10 µM (KDM6A (UTX) [1]): 100%

Cc1c(O)c(=O)ccn1CCCCCn1cc(-c2ccccc2F)nn1 [Compound 2m]
KDM6A (UTX) Inhibition (%) 1 (μM) (KDM6A (UTX) [2]): 16%
KDM6A (UTX) Inhibition (%) 10 (μM) (KDM6A (UTX) [2]): 100%
IC50 (MDA-MB-231 (TNBC BCa); 72 h): 18.3 µM

Cc1c(O)c(=O)ccn1CCCCCn1cc(-c2ccc(F)cc2)nn1 [Compound 2o, 1-(5-(4-(4-Fluorophenyl)-1H-1,2,3-triazol-1-yl)pentyl)-3-hydroxy-2-methylpyridin-4(1H)-one]
inhibition at 1 µM (KDM6A (UTX) [1]): 10%
inhibition at 10 µM (KDM6A (UTX) [1]): 100%

COc1ccc2cc(-c3cn(CCCCCCn4ccc(=O)c(O)c4C)nn3)ccc2c1 [Compound 2w, 3-Hydroxy-1-(6-(4-(6-methoxynaphthalen-2-yl)-1H-1,2,3-triazol-1-yl)hexyl)-2-methylpyridin-4(1H)-one]
concentration at which maximum inhibition of heterochromatin formation / gene repression is reached [3]: 1 µM
inhibition of heterochromatin formation (in words) [3]: significantly inhibited

COc1ccccc1-c1cn(CCCCCn2ccc(=O)c(O)c2C)nn1 [Compound 2h, 3-Hydroxy-1-(5-(4-(2-methoxyphenyl)-1H-1,2,3-triazol-1-yl)pentyl)-2-methylpyridin-4(1H)-one]
inhibition at 1 µM (KDM6A (UTX) [1]): 3%
inhibition at 10 µM (KDM6A (UTX) [1]): 99%

Cc1c(O)c(=O)ccn1CCCCCCn1ccc(=O)c(O)c1C [Compound 3c]
KDM6A (UTX) Inhibition (%) 1 (μM) (KDM6A (UTX) [2]): 2%
KDM6A (UTX) Inhibition (%) 10 (μM) (KDM6A (UTX) [2]): 100%

Cc1c(O)c(=O)ccn1CCCCCCn1cc(-c2ccc(-c3ccccc3)cc2)nn1 [Compound 2v, 1-(6-(4-([1,1-Biphenyl]-4-yl)-1H-1,2,3-triazol-1-yl)hexyl)-3-hydroxy-2-methylpyridin-4(1H)-one]
concentration at which maximum inhibition of heterochromatin formation / gene repression is reached [3]: 1 µM
inhibition of heterochromatin formation (in words) [3]: significantly inhibited

Cc1c(O)c(=O)ccn1CCCCCCCn1ccc(=O)c(O)c1C [Compound 3d]
KDM6A (UTX) Inhibition (%) 1 (μM) (KDM6A (UTX) [2]): 3%
KDM6A (UTX) Inhibition (%) 10 (μM) (KDM6A (UTX) [2]): 100%

Cc1c(O)c(=O)ccn1CCCCn1ccc(=O)c(O)c1C [Compound 3a]
KDM6A (UTX) Inhibition (%) 1 (μM) (KDM6A (UTX) [2]): 4%
KDM6A (UTX) Inhibition (%) 10 (μM) (KDM6A (UTX) [2]): 100%

Reference: US20250268880A1, “3-(Hydroxy)-Pyridin-4(1H)-One Compounds and Methods of Making and Using the Same” (Georgia Tech Research Corporation, priority 2018, published 2025)
